For one series, the system named is A549. Description: Cytotoxicity against human A549 cells after 7 days by MTT assay. It is filed as functional. The settings on record: A549, 168 h, read-out: ED50 (the source's name).
A further series deals with Aspergillus niger. Description: Antimicrobial activity against Aspergillus niger ATCC 16888 by agar dilution method. It is filed as functional, organism-based. A general note: In agar dilution the substance is mixed into plates at graded concentrations.
Another series concerns HT-29. Description: Cytotoxicity against human HT29 cells after 7 days by MTT assay. It is filed as functional. The settings on record: HT-29, 168 h, read-out: ED50 (the source's name). A general note: Tetrazolium dyes change colour on reduction, which living cells bring about.
In another series the test system is Echinochloa crus-galli. Description: Phytogrowth-inhibitory activity against Echinochloa crus-galli assessed as inhibition of seedling germination by petri dish bioassay. It is filed as functional, organism-based.
Series [1] deals with Amaranthus hypochondriacus. Description: Phytogrowth-inhibitory activity against Amaranthus hypochondriacus assessed as inhibition of seedling growth petri dish bioassay. It is filed as functional, organism-based.
The subject of another series is Candida albicans. Description: Antimicrobial activity against Candida albicans ATCC 10231 by agar dilution method. In kind it is functional, organism-based.
For the next series, the system named is MCF7. Description: Cytotoxicity against human MCF7 cells after 7 days by MTT assay. It is filed as functional. The settings on record: MCF7, 168 h, read-out: ED50 (the source's name).
The nature of series [2]: Toxicity in brine shrimp. In kind it is organism-based. The settings on record: artemia, in vivo.
The subject of series [3] is Trichophyton mentagrophytes. Description: Antimicrobial activity against Trichophyton mentagrophytes ATCC 9129 by agar dilution method. In kind it is functional.

The text below walks through data of ChEMBL document CHEMBL1158240, “Phytogrowth-inhibitory and antifungal constituents of Helianthella quinquenervis” (J Nat Prod, 1996).

The structures appear in SMILES notation. Values after ≈ are worked out from the molar mass of the structure shown. Active and inactive are the calls of the source. The calls are words filed in the database; no cut-off is given here. Where only a bound is given, the exact number is not on record here.

Turning to `COC(C)(C)/C=C/c1cc(C(C)=O)ccc1O[C@@H]1O[C@H](CO)[C@@H](O)[C@H](O)[C@H]1O`, the EC50 with A549 amounted to 6 µg/mL (≈ 15.1 µM); in the series on HT-29, 61 µg/mL (≈ 154 µM); in the series with MCF7 it was 44 µg/mL (≈ 111 µM). Also, the result in the series with Aspergillus niger and in the series on Candida albicans was inactive. Further, the IC50 (as a rule, the concentration that inhibits the measured activity by half) was found to be 231 µg/mL (≈ 583 µM) in the series on Echinochloa crus-galli and 148 µg/mL (≈ 373 µM) in series [1]. In series [2], the LC50 (usually the concentration lethal to half of the exposed cells or organisms) was more than 1000 µg/mL.
Consider `C=C(C)[C@H]1Cc2cc(C(C)=O)c(OC)cc2O1`, for which the figures for the EC50 in the series on A549, in the series on HT-29 and in the series with MCF7 were 1 µg/mL (≈ 4.31 µM), 16 µg/mL (≈ 68.9 µM) and 33 µg/mL (≈ 142 µM), respectively. Moreover, the result with Aspergillus niger and with Candida albicans was inactive. In addition, the IC50 in the series with Echinochloa crus-galli was found to be 68 µg/mL (≈ 293 µM); in [1], 11 µg/mL (≈ 47.4 µM). This molecule also yielded an LC50 in series [2] of 8 µg/mL (≈ 34.4 µM).
For `C=C(C)[C@@H]1Oc2cc(O)c(C(C)=O)cc2[C@H]1OC`, the EC50 turned out to be 31 µg/mL (≈ 125 µM) in the series with A549, 16 µg/mL (≈ 64.4 µM) in the series with HT-29 and 34 µg/mL (≈ 137 µM) in the series on MCF7. For the same molecule, the result in the series with Aspergillus niger and in the series on Candida albicans was inactive. The IC50 in the series on Echinochloa crus-galli amounted to 323 µg/mL (≈ 1300 µM); in series [1] it was 61 µg/mL (≈ 246 µM). The same molecule had an LC50 in series [2] of 68 µg/mL (≈ 274 µM).
Consider `CC(=O)c1cc2c(cc1O)OC(C)(C)C=C2` [DEMETHYLENCECALIN], for which the values for the EC50 with A549, with HT-29 and with MCF7 were 10 µg/mL (≈ 45.8 µM), 2 µg/mL (≈ 9.16 µM) and 2 µg/mL (≈ 9.16 µM), respectively. The result in the series on Aspergillus niger and in the series on Candida albicans was inactive. Further, the IC50 with Echinochloa crus-galli worked out at 79 µg/mL (≈ 362 µM); in series [1], 27 µg/mL (≈ 124 µM). The lowest concentration to inhibit growth in series [3] (MIC) was 58 µg/mL (≈ 266 µM). The molecule also displayed an LC50 in [2] of 31 µg/mL (≈ 142 µM).
As to `COc1cccc2c1C(=O)c1c(O)c3c(c(O)c1C2=O)C[C@@](O)(C(=O)CO)C[C@@H]3O[C@H]1C[C@H](N)[C@H](O)[C@H](C)O1` [DOXORUBICIN], the values for the EC50 in the series with A549, in the series with HT-29 and in the series on MCF7 were 0.002 µg/mL (≈ 0.00368 µM), 0.04 µg/mL (≈ 0.0736 µM) and 0.02 µg/mL (≈ 0.0368 µM), respectively.
As to `COc1cc2c(cc1C(C)=O)C=CC(C)(C)O2` [ENCECALIN], the figures for the EC50 in the series with A549, in the series on HT-29 and in the series with MCF7 were 25 µg/mL (≈ 108 µM), 18 µg/mL (≈ 77.5 µM) and 29 µg/mL (≈ 125 µM), respectively. Further, the outcome in the series on Aspergillus niger and in the series on Candida albicans was inactive. In addition, the IC50 in the series with Echinochloa crus-galli is 6 µg/mL (≈ 25.8 µM); in series [1], 7 µg/mL (≈ 30.1 µM). Also, the LC50 in [2] was 31 µg/mL (≈ 133 µM).
As to `C=C(C)c1cc2cc(C(C)=O)c(O)cc2o1` [EUPARIN], the EC50 in the series with A549 worked out at 22 µg/mL (≈ 102 µM); in the series on HT-29 it was 6 µg/mL (≈ 27.7 µM); in the series on MCF7, 6 µg/mL (≈ 27.7 µM). Moreover, the result with Aspergillus niger and in the series on Candida albicans was inactive. Also, the IC50 turned out to be 252 µg/mL (≈ 1170 µM) with Echinochloa crus-galli and 111 µg/mL (≈ 513 µM) in series [1]. Also, the lowest concentration to inhibit growth in [3] (MIC) was 29 µg/mL (≈ 134 µM). This molecule showed an LC50 in [2] of 44 µg/mL (≈ 203 µM).
As for `COC1=CC(=O)C[C@@H](C)[C@]12Oc1c(Cl)c(OC)cc(OC)c1C2=O` [GRISEOFULVIN], the MIC (in general, the lowest concentration that inhibits growth of the organism) in series [3] was determined as 2.6 µg/mL (≈ 7.37 µM).
Take `CCCCC[C@H]1CCCCCCCCCC(=O)O[C@H]2[C@H](O)[C@@H](CO)O[C@@H](O[C@H]3[C@H](O1)O[C@H](C)[C@H](O)[C@@H]3O)[C@@H]2O[C@@H]1O[C@@H](C)[C@H](OC(=O)[C@@H](C)CC)[C@@H](O[C@@H]2O[C@@H](C)[C@H](O)[C@@H](O)[C@H]2O)[C@H]1OC(=O)[C@@H](C)CC` [TRICOLORIN A]: the results for the half-maximal inhibitory concentration (IC50) (with Echinochloa crus-galli; in series [1]) were 68 µg/mL (≈ 66.5 µM) and 11 µg/mL (≈ 10.8 µM), respectively.
